According to patent US11339171B2, “MDM2 inhibitors” (Gan & Lee Pharmaceuticals, priority 2017, dated 2022):
Where “and” joins values, the source holds several entries; their conditions need not be identical. Equal values may be shown once. Read-outs that look alike come from different tables or passages of the source.

Legend:
MDM2 = molecular target: T1, MDM2 (Homo sapiens, UniProt Q00987); assay: Inhibition test of MDM2-P53 (GST-MDM2, Biotin-P53, Anti-GST-Tb, SA-XL665); type: binding
T1 construct: made in house
T1 sequence (Q00987 whole entry): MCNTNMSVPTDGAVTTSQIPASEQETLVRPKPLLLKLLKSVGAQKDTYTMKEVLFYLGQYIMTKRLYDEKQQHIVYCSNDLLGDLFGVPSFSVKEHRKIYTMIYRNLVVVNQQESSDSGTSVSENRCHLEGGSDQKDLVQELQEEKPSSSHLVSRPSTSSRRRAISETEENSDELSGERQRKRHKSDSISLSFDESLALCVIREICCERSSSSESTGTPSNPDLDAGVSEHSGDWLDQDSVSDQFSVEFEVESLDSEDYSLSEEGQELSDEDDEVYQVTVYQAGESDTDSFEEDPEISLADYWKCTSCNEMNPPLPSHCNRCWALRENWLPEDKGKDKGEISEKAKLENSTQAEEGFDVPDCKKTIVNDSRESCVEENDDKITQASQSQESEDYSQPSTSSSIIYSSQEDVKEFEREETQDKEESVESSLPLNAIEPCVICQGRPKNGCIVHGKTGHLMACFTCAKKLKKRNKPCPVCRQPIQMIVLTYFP
Method in brief: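 Compounds, serially diluted 5-fold (twelve concentrations), were shaken for 90 min at 25° C with a mix of GST-MDM2 (4 nM final), Biotin-P53, anti-GST-Tb and SA-XL665. Buffer: 1×PBS, 0.1% BSA, 5 mM DTT, 1 mM AEBSF; signal read on a microplate reader.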

[1] = Pharmacokinetics in ICR mice after intravenous and intragastric administration; type: in vivo; settings: for MRT last: read-out: MRT(0-t); for MRT inf: read-out: MRT(0-∞); for Vd: read-out: Vz
Method in brief: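 Male ICR mice aged 6-9 weeks are dosed after an overnight fast, intravenously at 2 mg/kg and orally by gavage at 5 mg/kg. Plasma drug is measured by LC-MS/MS over a 1-2000 ng/ml range.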

[2] = test system: human osteosarcoma cell line SJSA-1; assay: Inhibition of proliferation of human osteosarcoma cell line SJSA-1 (DAPI staining, In Cell Analyzer); settings: Homo sapiens, SJSA-1, 72 h, read-out: IC50 (nM), inhibitory activity on proliferation of human osteosarcoma cell line SJSA-1, SJSA-1, incubated 72 h
[3] = IV 2 mg/kg, ICR mice, individual animal, 2 mg/kg
[4] = PO 5 mg/kg, ICR mice, individual animal, 5 mg/kg
[5] = male, ICR, mouse, plasma, iv, 2 mg/kg, IV 2 mg/kg, ICR mice, Mean
[6] = male, ICR, mouse, plasma, iv, 2 mg/kg, IV 2 mg/kg, ICR mice, individual animal
[7] = male, ICR, mouse, plasma, po, 5 mg/kg, PO 5 mg/kg, ICR mice, Mean
[8] = male, ICR, mouse, plasma, po, 5 mg/kg, PO 5 mg/kg, ICR mice, individual animal

Q: Which IC50 (MDM2) does the source give for `COc1ncc(-c2nc3c(n2C(C)C)[C@@]2(C(=O)Nc4cc(Cl)ccc42)N(c2cc(Cl)ccc2C)C3=O)c(OC)n1` [Example S-2, (S)-6-chloro-5′-(5-chloro-2-methylphenyl)-2′-(2,4-dimethoxypyrimidin-5-yl)-3′-isopropyl-3′H-spiro[dihydroindole-3,4′-pyrrolo[3,4-d]imidazole]-2,6′(5′H)-dione] here?
A: The IC50 was 1.13 nM.

Q: What about the “AUC(0-t)” value [1, 3] of the same molecule?
A: Its value is 1.47786 µg·h/mL and 1.36257 µg·h/mL.

Q: And the “AUC(0-∞)” value [1, 3]?
A: Its value is 1.49493 µg·h/mL and 1.39231 µg·h/mL.

Q: What about the CL [1, 3] of the same molecule?
A: Its CL is 1.33786 L/h/kg and 1.43646 L/h/kg.

Q: And the Cmax [1, 3]?
A: Its Cmax is 0.45611 µg/mL and 0.49238 µg/mL.

Q: What about the “MRT(0-t)” value [1, 3] of the same molecule?
A: Its value is 1.51 h.

Q: And the “MRT(0-∞)” value [1, 3]?
A: Its value is 1.54 h and 1.64 h.

Q: What about the Tmax [1, 3] of the same molecule?
A: The Tmax was 0.50 h and 1.00 h and 0.08 h.

Q: And the Vz [1, 3]?
A: Its Vz is 1.80436 L/kg and 2.29183 L/kg.

Q: And the t1/2 [1, 3]?
A: The t1/2 was 0.93 h and 1.11 h.

Q: What about the “F*” value ([1]; PO 5 mg/kg vs IV 2 mg/kg, ICR mice) of the same molecule?
A: Its value is 101.81%.

Q: And the “AUC(0-t)” value [1, 4]?
A: Its value is 3.88323 µg·h/mL and 4.13652 µg·h/mL.

Q: What about the “AUC(0-∞)” value [1, 4] of the same molecule?
A: Its value is 4.10077 µg·h/mL and 4.25908 µg·h/mL.

Q: What about the Cmax [1, 4] of the same molecule?
A: The Cmax was 0.72977 µg/mL and 0.80459 µg/mL.

Q: And the “MRT(0-t)” value [1, 4]?
A: Its value is 2.87 h and 2.76 h.

Q: What about the “MRT(0-∞)” value [1, 4] of the same molecule?
A: Its value is 3.28 h and 2.97 h.

Q: And the Tmax [1, 4]?
A: The Tmax was 1.00 h.

Q: What about the t1/2 [1, 4] of the same molecule?
A: The t1/2 was 1.83 h and 1.50 h.

Q: What about the AUC(0-inf) [1, 5] of the same molecule?
A: The AUC(0-inf) was 1.48 µg·h/mL.

Q: What about the clearance [1, 5] of the same molecule?
A: The clearance was 1.35 L/h/kg.

Q: What about the AUC(0-t) ([1]; male, ICR, mouse, plasma, iv, 2 mg/kg, IV 2 mg/kg, ICR mice, Mean, read-out: AUC(0-t)) of the same molecule?
A: Its AUC(0-t) is 1.46 µg·h/mL.

Q: And the Cmax ([1]; male, ICR, mouse, plasma, iv, 2 mg/kg, IV 2 mg/kg, ICR mice, Mean, read-out: Cmax)?
A: Its Cmax is 0.475 µg/mL.

Q: And the MRT last [1, 5]?
A: Its MRT last is 1.48 h.

Q: What about the MRT inf [1, 5] of the same molecule?
A: Its MRT inf is 1.56 h.

Q: What about the Tmax ([1]; male, ICR, mouse, plasma, iv, 2 mg/kg, IV 2 mg/kg, ICR mice, Mean, read-out: Tmax) of the same molecule?
A: The Tmax was 0.528 h.

Q: What about the Vd [1, 5] of the same molecule?
A: The Vd was 1.88 L/kg.

Q: What about the half-life ([1]; male, ICR, mouse, plasma, iv, 2 mg/kg, IV 2 mg/kg, ICR mice, Mean, read-out: t1/2 (converted)) of the same molecule?
A: Its half-life is 0.96 h.

Q: What about the AUC(0-inf) [1, 6] of the same molecule?
A: Its AUC(0-inf) is 1.56 µg·h/mL.

Q: What about the clearance [1, 6] of the same molecule?
A: Its clearance is 1.28 L/h/kg.

Q: And the AUC(0-t) ([1]; male, ICR, mouse, plasma, iv, 2 mg/kg, IV 2 mg/kg, ICR mice, individual animal, read-out: AUC(0-t))?
A: The AUC(0-t) was 1.55 µg·h/mL.

Q: What about the Cmax ([1]; male, ICR, mouse, plasma, iv, 2 mg/kg, IV 2 mg/kg, ICR mice, individual animal, read-out: Cmax) of the same molecule?
A: Its Cmax is 0.477 µg/mL.

Q: What about the MRT last [1, 6] of the same molecule?
A: Its MRT last is 1.47 h.

Q: What about the MRT inf [1, 6] of the same molecule?
A: Its MRT inf is 1.51 h.

Q: What about the Vd [1, 6] of the same molecule?
A: Its Vd is 1.55 L/kg.

Q: What about the half-life ([1]; male, ICR, mouse, plasma, iv, 2 mg/kg, IV 2 mg/kg, ICR mice, individual animal, read-out: t1/2 (converted)) of the same molecule?
A: The half-life was 0.84 h.

Q: And the AUC(0-inf) [1, 7]?
A: The AUC(0-inf) was 3.87 µg·h/mL.

Q: What about the AUC(0-t) ([1]; male, ICR, mouse, plasma, po, 5 mg/kg, PO 5 mg/kg, ICR mice, Mean, read-out: AUC(0-t)) of the same molecule?
A: The AUC(0-t) was 3.73 µg·h/mL.

Q: What about the Cmax ([1]; male, ICR, mouse, plasma, po, 5 mg/kg, PO 5 mg/kg, ICR mice, Mean, read-out: Cmax) of the same molecule?
A: The Cmax was 0.73 µg/mL.

Q: What about the MRT last [1, 7] of the same molecule?
A: Its MRT last is 2.84 h.

Q: What about the MRT inf [1, 7] of the same molecule?
A: The MRT inf was 3.12 h.

Q: What about the Tmax ([1]; male, ICR, mouse, plasma, po, 5 mg/kg, PO 5 mg/kg, ICR mice, Mean, read-out: Tmax) of the same molecule?
A: Its Tmax is 1.67 h.

Q: And the half-life ([1]; male, ICR, mouse, plasma, po, 5 mg/kg, PO 5 mg/kg, ICR mice, Mean, read-out: t1/2 (converted))?
A: Its half-life is 1.59 h.

Q: And the AUC(0-inf) [1, 8]?
A: The AUC(0-inf) was 3.25 µg·h/mL.

Q: What about the AUC(0-t) ([1]; male, ICR, mouse, plasma, po, 5 mg/kg, PO 5 mg/kg, ICR mice, individual animal, read-out: AUC(0-t)) of the same molecule?
A: Its AUC(0-t) is 3.17 µg·h/mL.

Q: What about the Cmax ([1]; male, ICR, mouse, plasma, po, 5 mg/kg, PO 5 mg/kg, ICR mice, individual animal, read-out: Cmax) of the same molecule?
A: The Cmax was 0.656 µg/mL.

Q: And the MRT last [1, 8]?
A: Its MRT last is 2.89 h.

Q: And the MRT inf [1, 8]?
A: The MRT inf was 3.09 h.

Q: What about the Tmax ([1]; male, ICR, mouse, plasma, po, 5 mg/kg, PO 5 mg/kg, ICR mice, individual animal, read-out: Tmax) of the same molecule?
A: Its Tmax is 2 h.

Q: And the half-life ([1]; male, ICR, mouse, plasma, po, 5 mg/kg, PO 5 mg/kg, ICR mice, individual animal, read-out: t1/2 (converted))?
A: Its half-life is 1.45 h.

Q: What about the AUC(0-t) ([1]; male, ICR, mouse, plasma, po, 5 mg/kg, oral intragastric administration 5 mg/kg, read-out: AUC0-t) of the same molecule?
A: The AUC(0-t) was 3.73 µg·h/mL.

Q: And the half-life ([1]; male, ICR, mouse, plasma, po, 5 mg/kg, oral intragastric administration 5 mg/kg, read-out: half-life (converted))?
A: Its half-life is 1.59 h.

Q: And the bioavailability ([1]; male, ICR, mouse, plasma, oral intragastric administration 5 mg/kg, read-out: bioavailability)?
A: Its bioavailability is 102%.

Q: What about the IC50 [2] of the same molecule?
A: Its IC50 is 7.4 nM.
